ChEMBL document CHEMBL3525920, “CYP4F enzymes are responsible for the elimination of fingolimod (FTY720), a novel treatment of relapsing multiple sclerosis” (Drug Metab Dispos, 2011)

What was measured:
[1] = Terminal half life in human; type: ADME, organism-based; parameters: dosed compound name Fingolimod; settings: in vivo, read-out: beta t1/2 (converted)
Cytochrome P450 4F2 [2] = target: T1, Cytochrome P450 4F2 (Homo sapiens, UniProt P78329); assay: Inhibition of human CYP4F2 in human liver microsomes assessed as fingolimod metabolism; type: ADME
T1 sequence (P78329 whole entry): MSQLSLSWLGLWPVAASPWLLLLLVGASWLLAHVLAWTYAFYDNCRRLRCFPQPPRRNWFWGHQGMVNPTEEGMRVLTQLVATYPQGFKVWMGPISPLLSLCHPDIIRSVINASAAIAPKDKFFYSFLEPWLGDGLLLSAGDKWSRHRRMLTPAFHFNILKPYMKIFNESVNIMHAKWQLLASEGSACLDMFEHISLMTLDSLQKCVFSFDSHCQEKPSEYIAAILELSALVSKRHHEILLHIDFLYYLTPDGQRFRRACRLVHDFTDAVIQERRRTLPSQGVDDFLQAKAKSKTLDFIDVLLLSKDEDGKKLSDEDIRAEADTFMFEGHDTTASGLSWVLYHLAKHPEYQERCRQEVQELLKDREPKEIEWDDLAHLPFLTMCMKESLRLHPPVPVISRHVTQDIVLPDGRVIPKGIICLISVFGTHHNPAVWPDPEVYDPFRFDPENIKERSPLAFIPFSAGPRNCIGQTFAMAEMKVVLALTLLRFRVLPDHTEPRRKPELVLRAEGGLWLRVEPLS

Cytochrome P450 4F2 [3] = target: T1, Cytochrome P450 4F2; assay: Inhibition of human recombinant CYP4F2 assessed as fingolimod metabolism; type: ADME
Cytochrome P450 2D6 = Cytochrome P450 2D6 (Homo sapiens, UniProt P10635); assay: Activity at human recombinant CYP2D6 expressed in baculovirus-infected BTI-TN-5B1-4 insect cell microsomes assessed as relative abundance of compound formation treated with [14C]fingolimod at 20 uM after 30 mins by HPLC-RA analysis; type: ADME; settings: bti-tn-5b1-4, 0.5 h
[4] = Retention time of the compound by long gradient-based HPLC-RA analysis; type: physicochemical
Cytochrome P450 4F2 [5] = target: T1, Cytochrome P450 4F2; assay: Activity at human recombinant CYP4F2 expressed in baculovirus-infected BTI-TN-5B1-4 insect cell microsomes assessed as relative abundance of compound formation treated with [14C]fingolimod at 100 uM after 30 mins by HPLC-RA analysis; type: ADME; settings: bti-tn-5b1-4, 0.5 h
[6] = Retention time of the compound by symmetry C18 column based LC-MS analysis; type: physicochemical
[7] = Retention time of the compound by C18 advantage armor column based LC-MS analysis; type: physicochemical
Cytochrome P450 4F3 = Cytochrome P450 4F3 (Homo sapiens, UniProt Q08477); assay: Activity at human recombinant CYP4F3B expressed in baculovirus-infected BTI-TN-5B1-4 insect cell microsomes assessed as relative abundance of compound formation treated with [14C]fingolimod at 100 uM after 30 mins by HPLC-RA analysis; type: ADME; settings: bti-tn-5b1-4, 0.5 h
[8] = substrate: CCCCCCCCc1ccc(CCC(N)(CO)CO)cc1; assay: Activity at human recombinant CYP4F2 expressed in baculovirus-infected BTI-TN-5B1-4 insect cell microsomes assessed as metabolite formation after 15 mins by Eadie-Hofstee plot analysis; type: ADME

Sequence of Cytochrome P450 4F3 (Q08477 whole entry): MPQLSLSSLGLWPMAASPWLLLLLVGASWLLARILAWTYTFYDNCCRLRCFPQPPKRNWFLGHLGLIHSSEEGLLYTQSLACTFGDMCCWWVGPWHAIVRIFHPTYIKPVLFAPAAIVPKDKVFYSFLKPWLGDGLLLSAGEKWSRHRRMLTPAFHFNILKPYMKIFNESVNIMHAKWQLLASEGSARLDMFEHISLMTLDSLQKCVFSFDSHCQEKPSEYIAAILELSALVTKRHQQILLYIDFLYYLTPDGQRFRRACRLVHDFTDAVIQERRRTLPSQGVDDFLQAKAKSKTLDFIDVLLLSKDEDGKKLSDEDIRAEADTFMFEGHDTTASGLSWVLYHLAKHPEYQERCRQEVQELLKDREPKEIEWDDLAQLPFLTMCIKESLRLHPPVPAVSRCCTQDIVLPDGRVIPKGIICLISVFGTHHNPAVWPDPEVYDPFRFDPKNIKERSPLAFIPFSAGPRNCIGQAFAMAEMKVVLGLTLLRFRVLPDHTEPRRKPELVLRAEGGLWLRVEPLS
Sequence of Cytochrome P450 2D6 (P10635 whole entry): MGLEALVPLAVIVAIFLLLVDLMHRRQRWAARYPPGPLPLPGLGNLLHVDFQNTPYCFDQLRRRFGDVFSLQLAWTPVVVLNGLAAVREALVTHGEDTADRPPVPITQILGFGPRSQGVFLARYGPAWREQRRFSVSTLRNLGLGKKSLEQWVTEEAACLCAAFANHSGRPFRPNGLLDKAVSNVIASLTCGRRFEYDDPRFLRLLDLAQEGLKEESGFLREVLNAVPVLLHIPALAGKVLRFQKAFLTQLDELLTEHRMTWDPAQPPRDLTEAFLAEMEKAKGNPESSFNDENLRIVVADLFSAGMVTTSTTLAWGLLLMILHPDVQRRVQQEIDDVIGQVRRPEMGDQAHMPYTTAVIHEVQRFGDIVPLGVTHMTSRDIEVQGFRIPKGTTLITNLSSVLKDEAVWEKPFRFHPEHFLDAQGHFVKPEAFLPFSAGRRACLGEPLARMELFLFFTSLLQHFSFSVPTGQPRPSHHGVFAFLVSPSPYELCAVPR

`CCCCCCCCc1ccc(CCC(N)(CO)CO)cc1` [FINGOLIMOD] gave a half-life [1] of 120 h.

In the case of `CC(=O)N1CCN(c2ccc(OCC3COC(Cn4ccnc4)(c4ccc(Cl)cc4Cl)O3)cc2)CC1` (stereo unspecified) [KETOCONAZOLE], the Ki (Cytochrome P450 4F2 [2]) is reported as 740 nM and the IC50 (Cytochrome P450 4F2 [3]) is reported as 1600 nM.

In the case of `NC(CO)(CO)CCc1ccc(CCCCCCCCO)cc1`, the Compound recovery (Cytochrome P450 2D6) is reported as 1.02%, the Retention_time [4] is reported as 34.7 min and the Compound recovery (Cytochrome P450 4F2 [5]) is reported as 2.99%. The Retention_time [6] was 32.1 min, the Retention_time [7] was 35.4 min and the Compound recovery (Cytochrome P450 4F3) was 0.84%.

B1: Cytochrome P450 4F2 (Homo sapiens) (protein)
chain: T1 sequence (P78329 whole entry)
B1 showed a Km [8] of 45 µM and a Vmax [8] of 0.00105 µmol/min.
